The term IC50 denotes the concentration needed to halve the response being measured.

Data on one molecule can be found in US9034876B2, “Treatment of chronic inflammation with a 1,2,4-triazolo [1,5a] pyridine derivative” (Cephalon, Inc., priority 2010, dated 2015).

The target in one series is human JAK2 (Homo sapiens, UniProt O60674). As to conditions: read-out: IC50, JAK2 kinase, isolated human enzyme; average±standard deviation of at least 4 determinations; 0.2 μM ATP.
The nature of series [1]: CAIA model, total body mass. Type of series: in vivo, female DBA/1 mice. The settings on record: all doses. How it is done: FIG. 3E: Depicts the effect of treatment on total body mass in a CAIA model
Acclimated mice were randomized, pre-bled and measured for baseline inflammation before any studies were initiated. On day 0, DBA/1 female mice were injected i.v. with […] of a saline solution containing 1.5 mg of a 10 mg/ml cocktail of arthritogenic monoclonal antibodies directed against different epitopes of collagen type II (Chondrex, Redmond, Wash.) suspended in saline. On day 3, mice were injected with 100 μl of 50 μg of E. coli 0111:B4 LPS (0.5 mg/ml stock) (Chondrex, Redmond, Wash.) i.p. and provided with gel food during recovery. Two days post-LPS treatment monitoring of arthritic paws began; peak arthritis usually occurred 2-3 days following LPS treatment. […] Arthritis clinical score tables can be found described elsewhere. […] All samples were kept at −80° C. until ready to assay. At about 4 weeks, mice were harvested for spleen, serum and arthritic paws for STAT and cytokine quantitation and histological analysis. […]

Series [2] concerns carrageenan-induced inflammation. In words: Air pouch mouse model of carrageenan-induced inflammation. Format: in vivo, Balb/c mice. The settings on record: 10, 30 and 55 mg/kg into the pouch, 24 hours, p<0.05 vs vehicle.
Procedure: Balb/c mice were induced for air pouch initiation (see materials and methods) using sterile air. Carrageenan at 1% in saline was injected directly into the pouch followed by treatment with Compound A or dexamethasone (Dex) 1 hour later. One-hundred microliters of air pouch fluid was removed 24 hours post-administration. FIG. 5A: Depicts total cell count using 7-AAD exclusion via flow cytometeric analysis and BD TruCount beads. FIG. 5B: Depicts fluid supernatant IL-6 concentration as determined by Luminex® cytokine analysis. FIG. 5C: Depicts hemoglobin content as assessed by the Drabkin's assay. All data shown in the figures represent mean±SEM, and statistics were performed using 2-way ANOVA analysis, *p<0.05, N=5 mice per group tested. To test the impact of Compound A inhibition of JAK2 at the cellular level, the mouse air pouch model (APM) was utilized. Air-filled subcutaneous pouches were maintained under sterile conditions and injected with 1% carrageenan simultaneously with Compound A at 10, 30 and 55 mg/kg. Saline alone (vehicle) or dexamethasone at 1.5 mg/kg were used as controls. […] Briefly, Balb/c mice were injected s.c. with 4 ml of sterile air on day −5, baseline measurements were recorded and mice were randomized into groups. Mice entered the study upon air pouch maintenance by day −3 when 2 ml of sterile air is injected for air pouch maintenance. On day 0 mice were given a 1% carrageenan (Sigma, St. Louis, Mo.) injection suspended in saline directly into the air pouch. This induces a rapid inflammatory influx of primarily neutrophils and macrophage. The test compounds were provided in saline at mg/kg concentrations in 100 μl total volume and introduced directly into the air pouch simultaneously with the carrageenan injection, (1% carrageenan in saline). […] Cellular exudates were centrifuged, supernatants were processed for Luminex cytokine analysis, and the cell pellets were counted for total live and dead cells. […] Hemoglobin content was determined using the Drabkin's assay (Sigma, St. Louis, Mo.).
For a further series, the system named is phospho-STAT3. In words: CIA model, paw phospho-STAT3. Format: in vivo, female DBA/1 mice. How it is done: Female DBA/1 mice were injected with purified collagen type II in CFA i.d. (intradermal), then boosted with collagen type II in IFA, s.c., (subcutaneous) on day 21 followed by a day 28 LPS injection i.p. to induce arthritis (CIA). Mice that scored a ‘1’ or better for each paw were considered arthritic and entered into the study. Treatments started after 7-10 days of arthritis induction. Compound A was provided orally, b.i.d., for all doses tested; Dex was administered i.p. at 1.5 mg/kg, three times a week; and vehicle (PEG400+1% DMSO) was provided orally, b.i.d.
FIG. 4B: Depicts Phospho-STAT3 expression in arthritic paws for each treatment group.
A more detailed description of this method can be found described elsewhere (Lu et al, 2010, submitted for publication). Briefly, the front (including carpus) and back (including tarsus) right paws were collected and frozen in dry-ice cooled isopentane and stored at −80° C. until use. The paws were cut to 2 mm×2 mm segments and kept on dry-ice in round bottom polypropylene tubes. […] Protein concentration was measured using a BCA protein assay (Pierce, Rockford, Ill.) and adjusted to 3 mg/ml. […]

The next series concerns the target Src kinase (Homo sapiens, UniProt P12931). In words: Kinase profiling panel, Src. Type of series: binding. As to conditions: 1 μM.

Sequence of human JAK2 (O60674 whole entry): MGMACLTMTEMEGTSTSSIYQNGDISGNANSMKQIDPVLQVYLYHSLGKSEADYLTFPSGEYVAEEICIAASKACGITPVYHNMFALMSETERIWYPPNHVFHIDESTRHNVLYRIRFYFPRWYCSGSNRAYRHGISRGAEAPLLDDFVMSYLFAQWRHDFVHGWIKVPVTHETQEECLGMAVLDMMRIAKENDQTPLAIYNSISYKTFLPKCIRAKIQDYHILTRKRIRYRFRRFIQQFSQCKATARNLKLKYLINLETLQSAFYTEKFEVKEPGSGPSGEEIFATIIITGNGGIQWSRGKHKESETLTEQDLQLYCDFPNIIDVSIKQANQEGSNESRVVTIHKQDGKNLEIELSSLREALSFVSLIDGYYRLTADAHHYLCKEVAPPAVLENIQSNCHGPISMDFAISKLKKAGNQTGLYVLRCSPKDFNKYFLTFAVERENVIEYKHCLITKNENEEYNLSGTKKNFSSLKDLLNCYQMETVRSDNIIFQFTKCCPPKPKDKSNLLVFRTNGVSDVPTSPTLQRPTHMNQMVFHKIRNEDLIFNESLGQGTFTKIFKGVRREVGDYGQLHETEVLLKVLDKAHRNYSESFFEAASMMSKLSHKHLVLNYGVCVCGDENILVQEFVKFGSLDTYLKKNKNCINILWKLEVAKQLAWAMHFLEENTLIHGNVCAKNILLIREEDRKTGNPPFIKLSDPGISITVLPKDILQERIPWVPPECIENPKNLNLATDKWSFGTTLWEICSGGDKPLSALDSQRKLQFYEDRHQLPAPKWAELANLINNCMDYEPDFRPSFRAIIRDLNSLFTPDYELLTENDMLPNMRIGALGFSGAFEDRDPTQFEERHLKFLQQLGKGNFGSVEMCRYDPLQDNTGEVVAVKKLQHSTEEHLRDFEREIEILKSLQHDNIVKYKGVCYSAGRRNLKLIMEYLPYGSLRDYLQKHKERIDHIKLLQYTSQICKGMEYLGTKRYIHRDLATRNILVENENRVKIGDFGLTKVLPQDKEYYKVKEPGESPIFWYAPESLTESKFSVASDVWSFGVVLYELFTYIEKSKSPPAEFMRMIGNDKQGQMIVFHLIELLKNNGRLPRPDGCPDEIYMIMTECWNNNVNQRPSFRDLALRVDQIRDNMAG
Sequence of Src kinase (P12931 whole entry): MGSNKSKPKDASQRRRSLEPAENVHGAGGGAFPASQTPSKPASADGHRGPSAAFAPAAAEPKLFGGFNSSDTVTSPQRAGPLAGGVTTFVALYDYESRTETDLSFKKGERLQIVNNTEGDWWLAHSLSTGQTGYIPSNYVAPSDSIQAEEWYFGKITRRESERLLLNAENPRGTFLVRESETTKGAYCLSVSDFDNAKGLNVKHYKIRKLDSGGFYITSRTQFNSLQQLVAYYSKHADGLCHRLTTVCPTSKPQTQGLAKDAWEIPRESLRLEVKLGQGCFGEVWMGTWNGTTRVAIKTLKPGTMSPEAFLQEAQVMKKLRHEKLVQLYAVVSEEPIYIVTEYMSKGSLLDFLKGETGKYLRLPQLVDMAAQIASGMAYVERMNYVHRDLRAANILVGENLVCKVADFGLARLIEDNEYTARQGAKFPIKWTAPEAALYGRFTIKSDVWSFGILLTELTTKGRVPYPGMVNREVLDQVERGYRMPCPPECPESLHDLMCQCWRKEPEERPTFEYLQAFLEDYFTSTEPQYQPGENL
Procedure for Src kinase: The ability of Compound A to inhibit other members of the kinome was also assessed using binding assays for a panel of 402 kinases [25].
Procedure for human JAK2: IC50 values are reported as the average±standard deviation of at least 4 independent determinations.
The kinase activity of baculovirus-expressed human JAK kinases (JAK1, JAK2, JAK3 or TYK2) was measured using the time-resolved fluorescence (TRF) detection system as described elsewhere [17]. Each 96-well Costar high binding plate (Corning, Corning, N.Y.) was coated with 100 μl/well of 10 μg/ml neutravidin (Pierce Biotechnology, Rockford, Ill.) in TBS at 37° C. for 2 h, followed by 100 μl/well of 1 μg/ml 15-mer peptide substrate (biotinyl-amino-hexanoyl-[sequence]-amide, Infinity Biotech Research and Resource, Aston, Pa.) at 37° C. for 1 h. The kinase assay mixture (total volume=100 μl/well) consisting of 20 mM HEPES (pH 7.2), ATP (Km level for each kinase), 1 mM MnCl2, 0.1% BSA, and test Compound (diluted in DMSO; 2.5% DMSO final in assay) was added to the assay plate. The concentrations of ATP used were as follows: 0.2 μM ATP for JAK1, JAK2 and TYK2; 0.1 μM ATP for JAK3. Enzyme was added and the reaction was allowed to proceed for 20 min at RT. […] Plates were agitated for 10 min and the fluorescence of the resulting solution measured using the PerkinElmer EnVision® 2102 or 2104 multi-label plate reader. IC50 values were determined using the 4-parameter logistic model in XLFit® 4 (IDBS, Ltd., Guildford, UK).

For the molecule `CN1CCN(c2cccc(Nc3nc4c(-c5ccc(S(C)(=O)=O)cc5)cccn4n3)c2)CC1` [Compound A, [8-(4-Methanesulfonyl-phenyl)-[1,2,4]triazolo[1,5-a]pyridin-2-yl]-[3-(4-methyl-piperazin-1-yl)-phenyl]-amine], the concentration for half-maximal inhibition (IC50) at human JAK2 turned out to be 1.8 ± 0.6 nM. Moreover, the total body mass entry in series [1] is “not significantly different from that of vehicle-treated animals”. Further, in series [2], the “air pouch fluid IL-6 expression” value is given as “inhibit the expression of IL-6 to below that of Dex”; the “angiogenesis, total hemoglobin content (Drabkin's assay)” value is recorded as “angiogenesis was impacted”; the “cellular accumulation in the air pouch (total cell count)” value is given as “significantly decreased cellular accumulation in the air pouch”. In addition, the “paw pSTAT3” value with phospho-STAT3 (55 mg/kg, p<0.01) is “significantly reduced”. The “paw pSTAT3” value in the series with phospho-STAT3 (100 mg/kg, p<0.001) is on record as “significantly reduced”. In addition, on Src kinase, the “activity against Src in profiling panel” value is listed as “lacked activity”.
